# Assay results taken from ChEMBL document CHEMBL1201862, “PubChem BioAssay data set” (2004).
#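 Where inhibition never reached the appropriate level, the endpoint shown equals the highest concentration tested. Otherwise, values were interpolated linearly from a five-concentration, 48-hour dose response in 96-well plates. GI50 = concentration required for 50% inhibition of growth.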 Active and inactive are the calls of the source. Cut-off read from the data, not from the text of the source: active = GI50 up to about 1.1 µM and inactive = higher.
# Tests used:
# Test in all cases: inhibition of tumour cell growth, NCI panel, 48 h
# A549 = test system: A549
# HCC 2998 = test system: HCC 2998
# 786-0 = test system: 786-0
# NCI-H522 = test system: NCI-H522
# T47D = test system: T47D
# IGROV-1 = test system: IGROV-1
# HL-60 = test system: HL-60
# SK-MEL-28 = test system: SK-MEL-28
# SNB-19 = test system: SNB-19
# SF-268 = test system: SF-268
# SR = test system: SR
# PC-3 = test system: PC-3
# ACHN = test system: ACHN
# TK-10 = test system: TK-10
# MDA-N = test system: MDA-N
# OVCAR-5 = test system: OVCAR-5
# RPMI-8226 = test system: RPMI-8226
# Hs-578T = test system: Hs-578T
# KM12 = test system: KM12
# OVCAR-4 = test system: OVCAR-4
# EKVX = test system: EKVX
# OVCAR-8 = test system: OVCAR-8
# NCI-H460 = test system: NCI-H460
# NCI-H226 = test system: NCI-H226
# DU-145 = test system: DU-145
# COLO 205 = test system: COLO 205
# K562 = test system: K562
# SF-295 = test system: SF-295
# SK-OV-3 = test system: SK-OV-3
# SK-MEL-5 = test system: SK-MEL-5
# HCT-15 = test system: HCT-15
# MOLT-4 = test system: MOLT-4
# NCI-H23 = test system: NCI-H23
# HOP-92 = test system: HOP-92
# UACC-62 = test system: UACC-62
# MCF7 = test system: MCF7
# MDA-MB-435 = test system: MDA-MB-435
# SN12C = test system: SN12C
# CCRF-CEM = test system: CCRF-CEM
# HOP-62 = test system: HOP-62
# NCI/ADR-RES = test system: NCI/ADR-RES
# UO-31 = test system: UO-31
# HCT-116 = test system: HCT-116
# UACC-257 = test system: UACC-257
# CAKI-1 = test system: CAKI-1
# SK-MEL-2 = test system: SK-MEL-2
# RXF 393 = test system: RXF 393
# A498 = test system: A498
# Malme-3M = test system: Malme-3M
# M14 = test system: M14
# OVCAR-3 = test system: OVCAR-3
# SF-539 = test system: SF-539
# MDA-MB-231 = test system: MDA-MB-231
# U-251 = test system: U-251
# BT-549 = test system: BT-549
# HT-29 = test system: HT-29
# SW-620 = test system: SW-620
# LOX IMVI = test system: LOX IMVI
# SNB-75 = test system: SNB-75
smiles,measurement,setting,value
CC1=NN(c2nc(N)nc(/C(C#N)=C/c3ccccc3O)n2)C(C)(C)C1,GI50,A549,15.9 µM (inactive)
same,GI50,HCC 2998,19.5 µM (inactive)
same,GI50,786-0,15.7 µM (inactive)
same,GI50,NCI-H522,19.8 µM (inactive)
same,GI50,T47D,15.7 µM (inactive)
same,GI50,IGROV-1,23.1 µM (inactive)
same,GI50,HL-60,30.3 µM (inactive)
same,GI50,SK-MEL-28,16.7 µM (inactive)
same,GI50,SNB-19,25.5 µM (inactive)
same,GI50,SF-268,18.2 µM (inactive)
same,GI50,SR,35.9 µM (inactive)
same,GI50,PC-3,16 µM (inactive)
same,GI50,ACHN,18.5 µM (inactive)
same,GI50,TK-10,26.7 µM (inactive)
same,GI50,MDA-N,15.3 µM (inactive)
same,GI50,OVCAR-5,15.4 µM (inactive)
same,GI50,RPMI-8226,17 µM (inactive)
same,GI50,Hs-578T,16.3 µM (inactive)
same,GI50,KM12,15.8 µM (inactive)
same,GI50,OVCAR-4,19 µM (inactive)
same,GI50,EKVX,16 µM (inactive)
same,GI50,OVCAR-8,26.5 µM (inactive)
same,GI50,NCI-H460,19.4 µM (inactive)
same,GI50,NCI-H226,17.3 µM (inactive)
same,GI50,DU-145,15.4 µM (inactive)
same,GI50,COLO 205,17.4 µM (inactive)
same,GI50,K562,51.5 µM (inactive)
same,GI50,SF-295,15.6 µM (inactive)
same,GI50,SK-OV-3,23.1 µM (inactive)
same,GI50,SK-MEL-5,15.5 µM (inactive)
same,GI50,HCT-15,19.4 µM
same,GI50,MOLT-4,30.4 µM (inactive)
same,GI50,NCI-H23,16.8 µM (inactive)
same,GI50,HOP-92,20.1 µM (inactive)
same,GI50,UACC-62,17.1 µM (inactive)
same,GI50,MCF7,24.8 µM (inactive)
same,GI50,MDA-MB-435,17.3 µM (inactive)
same,GI50,SN12C,25.5 µM (inactive)
same,GI50,CCRF-CEM,18 µM (inactive)
same,GI50,HOP-62,20.5 µM (inactive)
same,GI50,NCI/ADR-RES,21.4 µM (inactive)
same,GI50,UO-31,18.8 µM (inactive)
same,GI50,HCT-116,18.3 µM (inactive)
same,GI50,UACC-257,18.9 µM (inactive)
same,GI50,CAKI-1,19.6 µM (inactive)
same,GI50,SK-MEL-2,22.2 µM (inactive)
same,GI50,RXF 393,20.2 µM (inactive)
same,GI50,A498,24.7 µM (inactive)
same,GI50,Malme-3M,18.7 µM (inactive)
same,GI50,M14,20.8 µM (inactive)
same,GI50,OVCAR-3,14.7 µM (inactive)
same,GI50,SF-539,16.9 µM (inactive)
same,GI50,MDA-MB-231,19.9 µM (inactive)
same,GI50,U-251,18.4 µM (inactive)
same,GI50,BT-549,36.2 µM (inactive)
same,GI50,HT-29,19.8 µM (inactive)
CC(=O)OCC(=O)O[C@@H]1[C@H]2[C@@H](OC(=O)c3ccccc3)[C@@H](C)C[C@]2(O)[C@H](OC(C)=O)[C@@]2(C)C[C@]1(OC(C)=O)C[C@H]1C(=O)C(C)(C)[C@@H](OC(C)=O)[C@@H]12,GI50,A549,3.66 µM (inactive)
same,GI50,HCC 2998,9.38 µM (inactive)
same,GI50,786-0,> 20 µM (inactive)
same,GI50,NCI-H522,> 25 µM (inactive)
same,GI50,T47D,> 25 µM (inactive)
same,GI50,IGROV-1,> 25 µM (inactive)
same,GI50,HL-60,2.77 µM (inactive)
same,GI50,SK-MEL-28,> 25 µM (inactive)
same,GI50,SNB-19,> 25 µM (inactive)
same,GI50,SF-268,> 25 µM (inactive)
same,GI50,SR,> 25 µM (inactive)
same,GI50,PC-3,22.4 µM (inactive)
same,GI50,ACHN,> 25 µM (inactive)
same,GI50,TK-10,> 25 µM (inactive)
same,GI50,MDA-N,6.98 µM (inactive)
same,GI50,OVCAR-5,10 µM (inactive)
same,GI50,RPMI-8226,17.9 µM (inactive)
same,GI50,Hs-578T,9.55 µM (inactive)
same,GI50,KM12,> 25 µM (inactive)
same,GI50,OVCAR-4,> 20.9 µM (inactive)
same,GI50,EKVX,24.8 µM (inactive)
same,GI50,OVCAR-8,> 25 µM (inactive)
same,GI50,NCI-H460,0.991 µM (active)
same,GI50,NCI-H226,> 25 µM (inactive)
same,GI50,DU-145,> 25 µM (inactive)
same,GI50,COLO 205,4.75 µM (inactive)
same,GI50,K562,1.48 µM (inactive)
same,GI50,SF-295,6.01 µM (inactive)
same,GI50,SW-620,21.2 µM (inactive)
same,GI50,SK-OV-3,> 25 µM (inactive)
same,GI50,SK-MEL-5,9.46 µM (inactive)
same,GI50,HCT-15,> 25 µM
same,GI50,MOLT-4,> 5.14 µM (inactive)
same,GI50,NCI-H23,> 25 µM (inactive)
same,GI50,LOX IMVI,> 25 µM (inactive)
same,GI50,HOP-92,> 16.3 µM (inactive)
same,GI50,UACC-62,> 25 µM (inactive)
same,GI50,MCF7,> 25 µM (inactive)
same,GI50,MDA-MB-435,10.8 µM (inactive)
same,GI50,SN12C,> 25 µM (inactive)
same,GI50,HOP-62,5.78 µM (inactive)
same,GI50,NCI/ADR-RES,> 25 µM (inactive)
same,GI50,UO-31,0.912 µM (active)
same,GI50,HCT-116,> 25 µM (inactive)
same,GI50,UACC-257,> 25 µM (inactive)
same,GI50,SNB-75,7.71 µM (inactive)
same,GI50,CAKI-1,17.1 µM (inactive)
same,GI50,SK-MEL-2,> 25 µM (inactive)
same,GI50,RXF 393,> 25 µM (inactive)
same,GI50,A498,13.4 µM (inactive)
same,GI50,Malme-3M,> 25 µM (inactive)
same,GI50,M14,> 12.1 µM (inactive)
same,GI50,OVCAR-3,> 25 µM (inactive)
same,GI50,SF-539,> 25 µM (inactive)
same,GI50,MDA-MB-231,> 25 µM (inactive)
same,GI50,U-251,> 25 µM (inactive)
same,GI50,BT-549,> 25 µM (inactive)
same,GI50,HT-29,9.42 µM (inactive)
